Data reported in ChEMBL document CHEMBL1122588 (J Med Chem, 1984).
Where “and” joins values, the source holds several entries; their conditions need not be identical. Equal entries are not always repeated.

Key:
L1210 = assay: cells; details: Mus musculus, L1210, 72 h, read-out: ID50
Description: In vitro concentration required to reduce the murine L1210 leukemia cells in cultures to 50% after a period of 72 hr.

P388 [1] = assay: animal or person; details: Mus musculus
Description: In vivo antitumor activity in mice bearing P388 leukemia cells at an optimal dose of 100 mg/kg given on days 1,5,9.

P388 [2] = assay: animal or person; details: Mus musculus; remark: listed apart in the source
Description: In vivo antitumor activity in mice bearing P388 leukemia cells at an optimal dose of 45 mg/kg given on days 1,5,9.

P388 [3] = assay: animal or person; details: Mus musculus; remark: listed apart in the source
Description: In vivo antitumor activity in mice bearing P388 leukemia cells at an optimal dose of 45 mg/kg given on days 1,5,9

P388 [4] = assay: animal or person; details: Mus musculus; remark: listed apart in the source
Description: In vivo antitumor activity in mice bearing P388 leukemia cells at an optimal dose of 30 mg/kg given on days 1,5,9.

P388 [5] = assay: animal or person; details: Mus musculus; remark: listed apart in the source
Description: In vivo antitumor activity in mice bearing P388 leukemia cells at an optimal dose of 50 mg/kg given on days 1,5,9

physchem = details: Intestine
Description: Compound was evaluated for its rate of absorption from the intestine and pKa value was determined, lower value indicate high absorption from gastrointestinal tract.

P388 [6] = assay: animal or person; details: Mus musculus; remark: listed apart in the source
Description: In vivo antitumor activity in mice bearing P388 leukemia cells at an optimal dose of 20 mg/kg given on days 1,5,9

P388 [7] = assay: animal or person; details: Mus musculus; remark: listed apart in the source
Description: In vivo antitumor activity in mice bearing P388 leukemia cells at an optimal dose of 300 mg/kg given on days 1,5,9.

P388 [8] = assay: animal or person; details: Mus musculus; remark: listed apart in the source
Description: In vivo antitumor activity in mice bearing P388 leukemia cells at an optimal dose of 100 mg/kg given on days 1,5,9

P388 [9] = assay: animal or person; details: Mus musculus; remark: listed apart in the source
Description: In vivo antitumor activity in mice bearing P388 leukemia cells at an optimal dose of 30 mg/kg given on days 1,5,9

P388 [10] = assay: animal or person; details: Mus musculus; remark: listed apart in the source
Description: In vivo antitumor activity in mice bearing P388 leukemia cells at an optimal dose of 65 mg/kg given on days 1,5,9

P388 [11] = assay: animal or person; details: Mus musculus; remark: listed apart in the source
Description: In vivo antitumor activity in mice bearing P388 leukemia cells at an optimal dose of 20 mg/kg given on days 1,5,9.

P388 [12] = assay: animal or person; details: Mus musculus; remark: listed apart in the source
Description: In vivo antitumor activity in mice bearing P388 leukemia cells at an optimal dose of 13.3 mg/kg given on days 1,5,9.

P388 [13] = assay: animal or person; details: Mus musculus; remark: listed apart in the source
Description: In vivo antitumor activity in mice bearing P388 leukemia cells at an optimal dose of 65 mg/kg given on days 1,5,9.

SMILES | IC50 (L1210) [nM] | ILS at 100 mg/kg (P388 [1]) [%] | Log K (Nucleic Acid) | pKa (physchem) | also measured
COc1cc(NS(C)(=O)=O)ccc1Nc1c2cccc(C)c2nc2c(C)cccc12 | 110 | 86 | 6.14 and 6.46 |  | ILS at 45 mg/kg (P388 [2]): 135%
COc1cc(NS(C)(=O)=O)ccc1Nc1c2cccc(OC)c2nc2c(OC)cccc12 | 65 | 48 | 6.32 and 6.4 |  | ILS at 45 mg/kg (P388 [3]): 99%
COc1cc(NS(C)(=O)=O)ccc1Nc1c2ccccc2nc2c(C(N)=O)cccc12 | 270 | 11 |  |  | ILS at 30 mg/kg (P388 [4]): 113%
CNC(=O)c1cccc2c(Nc3ccc(NS(C)(=O)=O)cc3OC)c3cccc(C)c3nc12 [ASULACRINE] |  |  |  | 6.4 | ILS at 50 mg/kg (P388 [5]): 164%; ILS at 20 mg/kg (P388 [6]): 200%
COc1cc(NS(C)(=O)=O)ccc1Nc1c2cccc(C)c2nc2c(C(N)=O)cccc12 | 47 | 25 | 6.62 and 6.92 | 6.43 | ILS at 20 mg/kg (P388 [6]): 113%
CNC(=O)c1cccc2c(Nc3ccc(NS(C)(=O)=O)cc3OC)c3ccccc3nc12 | 270 |  |  |  | ILS at 300 mg/kg (P388 [7]): 127%; ILS at 100 mg/kg (P388 [8]): 128%
COc1cc(NS(C)(=O)=O)ccc1Nc1c2ccccc2nc2c(OC)cccc12 | 40 |  | 5.94 and 6 |  | ILS at 30 mg/kg (P388 [9]): 139%; ILS at 45 mg/kg (P388 [2]): 23%
COc1cc(NS(C)(=O)=O)ccc1Nc1c2ccccc2nc2c(C)cccc12 | 30 |  | 6.03 and 5.96 |  | ILS at 65 mg/kg (P388 [10]): 47%; ILS at 20 mg/kg (P388 [6]): 143%
COc1cc(NS(C)(=O)=O)ccc1Nc1c2cccc(C)c2nc2c(OC)cccc12 | 30 | 69 | 6.21 and 6.19 | 6.9 | ILS at 30 mg/kg (P388 [9]): 109%
CNC(=O)c1cccc2c(Nc3ccc(NS(C)(=O)=O)cc3OC)c3cccc(OC)c3nc12 | 17 | 34 | 6.24 and 6.65 | 6.55 | ILS at 20 mg/kg (P388 [11]): 139%
COc1cc(NS(C)(=O)=O)ccc1Nc1c2ccccc2nc2ccccc12 [AMSACRINE] |  |  | 5.57 and 5.65 |  | ILS at 13.3 mg/kg (P388 [12]): 78%; ILS at 65 mg/kg (P388 [13]): 63%
